13 compounds from patent US7589104B2, “Tricyclic-bridged piperidinyline derivatives as §-opioid modulators” (Janssen Pharmaceutica NV, priority 2004, dated 2009) can be followed below.

Like-named read-outs stand apart in the source and are kept apart here.

The target in one assay is T1, mu opioid receptor (Rattus norvegicus, UniProt P33535).
T1 construct: Following incubation with the mu selective peptide ligand, ˜0.8 nM [^3H]DAMGO; from tissue; host or cells: forebrain of male Wistar rats (Charles River)
The assay is described as follows: Rat Brain Mu Opioid Receptor Binding Assay.

Assay [1] addresses T2, delta opioid receptor (Rattus norvegicus, UniProt P33533).
T2 construct: from tissue; host or cells: forebrain of male Wistar rats (Charles River)
The assay is described as follows: Rat Brain Delta Opioid Receptor Binding Assay.

In assay [2] the target is T3, delta opioid receptor (Mus musculus, UniProt P32300).
T3 construct: NG108-15 cell membranes were purchased from Applied Cell Sciences (Rockville, Md.); host or cells: NG108-15 cell membranes (purchased)
The assay can be described thus: [35S]GTPγS Binding Assay in NG108-15 Cell Membranes (Delta Opioid). In kind it is biochemical. Particulars: for delta GTPgS Rel Eff: relative efficacy. On the procedure: Methods: NG108-15 cell membranes were purchased from Applied Cell Sciences (Rockville, Md.). 8 mg/mL of membrane protein suspended in 10 mM TRIS-HCl pH 7.2, 2 mM EDTA, 10% sucrose. Membranes were maintained at 4-8° C. A 1 mL volume of membranes was added into 10 mL cold binding assay buffer. The assay buffer contained 50 mM Tris, pH 7.6, 5 mM MgCl2, 100 mM NaCl, 1 mM DTT and 1 mM EGTA. The membrane suspension was homogenized twice with a Polytron, and centrifuged at 3000 rpm for 10 min. The supernatant was then centrifuged at 18,000 rpm for 20 min. Ten mL assay buffer was added into the pellet containing tube. The pellet and buffer were mixed with a Polytron.
Incubation procedure: The pellet membranes (75 μg/mL) were preincubated with SPA (10 mg/mL) at 25° C. for 45 min in the assay buffer. […] GTPγS in the same Tris buffer containing 100 μM GDP in total volume of 200 μL. Increasing concentrations of receptor agonists were used to stimulate [35S]- GTPγS binding. The basal binding was tested in the absence of agonists and non-specific binding was tested in the presence of 10 μM unlabeled GTPγS. The data were analyzed on a Packard Top Count.
% of Basal=(stimulated−non specific)*100/(basal−non specific). EC50 values were calculated using GraphPad Prism.
Background: GTPγS is a poorly hydrolysed GTP analogue; its binding reports G protein activation.

Setting [3] is: rat forebrain membranes, [3H]DAMGO, read-out: mu (Ki).
[4] abbreviates: NG108-15 cell membranes, stimulation of [35S]GTPγS binding, read-out: delta GTPgS EC50.

T2 sequence (P33533 whole entry): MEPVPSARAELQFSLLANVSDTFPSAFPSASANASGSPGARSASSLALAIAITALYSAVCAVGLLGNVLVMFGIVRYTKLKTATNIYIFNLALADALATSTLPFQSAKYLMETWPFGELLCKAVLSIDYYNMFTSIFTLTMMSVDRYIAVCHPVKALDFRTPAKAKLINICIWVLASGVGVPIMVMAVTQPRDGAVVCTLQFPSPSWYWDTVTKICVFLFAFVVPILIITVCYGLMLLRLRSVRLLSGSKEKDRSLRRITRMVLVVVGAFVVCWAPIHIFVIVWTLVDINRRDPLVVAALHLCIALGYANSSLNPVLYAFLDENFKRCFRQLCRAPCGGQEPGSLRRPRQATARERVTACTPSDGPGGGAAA
T3 sequence (P32300 whole entry): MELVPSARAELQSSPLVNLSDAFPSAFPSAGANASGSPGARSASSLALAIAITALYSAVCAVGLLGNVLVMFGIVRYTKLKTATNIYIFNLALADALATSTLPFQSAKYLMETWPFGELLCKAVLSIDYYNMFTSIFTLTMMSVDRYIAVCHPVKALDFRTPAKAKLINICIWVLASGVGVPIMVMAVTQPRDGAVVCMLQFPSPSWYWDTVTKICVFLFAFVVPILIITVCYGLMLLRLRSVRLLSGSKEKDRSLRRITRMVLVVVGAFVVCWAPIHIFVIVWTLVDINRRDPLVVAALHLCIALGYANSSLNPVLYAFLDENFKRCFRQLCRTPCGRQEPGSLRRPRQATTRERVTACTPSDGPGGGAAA
T1 sequence (P33535 whole entry): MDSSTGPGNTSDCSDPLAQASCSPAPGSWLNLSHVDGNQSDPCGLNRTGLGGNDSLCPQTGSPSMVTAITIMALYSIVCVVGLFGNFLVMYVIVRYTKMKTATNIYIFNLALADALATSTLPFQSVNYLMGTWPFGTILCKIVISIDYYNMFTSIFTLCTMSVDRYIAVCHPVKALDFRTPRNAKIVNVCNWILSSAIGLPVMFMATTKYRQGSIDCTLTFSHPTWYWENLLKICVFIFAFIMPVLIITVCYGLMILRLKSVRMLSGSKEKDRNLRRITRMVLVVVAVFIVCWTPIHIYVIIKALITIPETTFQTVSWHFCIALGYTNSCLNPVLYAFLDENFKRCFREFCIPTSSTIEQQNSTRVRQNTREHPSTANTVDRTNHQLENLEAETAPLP

In the case of `CCN(CC)C(=O)c1ccc2c(c1)Oc1c(O)cccc1C2C1CC2CCC(C1)N2Cc1ncc[nH]1` (centres unmarked) [Compound 10c, 5-Hydroxy-9-[8-(1H-imidazol-2-ylmethyl)-8-aza-bicyclo[3.2.1]oct-3-yl]-9H-xanthene-3-carboxylic acid diethylamide], the values for the Ki at mu opioid receptor and on delta opioid receptor [1] were 70 nM and 0.32 nM, respectively. The compound further yielded an EC50 at delta opioid receptor [2] of 6.4 nM. Moreover, on delta opioid receptor [2] (NG108-15 cell membranes), the “delta GTPgS Rel Eff” value worked out at 0.94.
`CCN(CC)C(=O)c1ccc2c(c1)Oc1c(OC)cccc1C2C1CC2CCC(C1)N2` (centres unmarked) [Compound 7c, 9-(8-Aza-bicyclo[3.2.1]oct-3-yl)-5-methoxy-9H-xanthene-3-carboxylic acid diethylamide]: the values for the Ki on mu opioid receptor and on delta opioid receptor [1] were 463 nM and 3.1 nM, respectively. At delta opioid receptor [2], this compound registered an EC50 of 29.2 nM. Further, the “delta GTPgS Rel Eff” value at delta opioid receptor [2] (NG108-15 cell membranes) came to 0.80.
For the compound `CCN(CC)C(=O)c1ccc2c(c1)Oc1ccccc1C2C1CC2CCC(C1)N2Cc1ccccc1` (centres unmarked) [Compound 11a, 9-(8-Benzyl-8-aza-bicyclo[3.2.1]oct-3-yl)-9H-xanthene-3-carboxylic acid diethylamide], the Ki is 1120 nM on mu opioid receptor and 19.9 nM on delta opioid receptor [1]. Moreover, the EC50 on delta opioid receptor [2] worked out at 118 nM. For the same compound, the “delta GTPgS Rel Eff” value on delta opioid receptor [2] (NG108-15 cell membranes) is 0.78.
Turning to “9-(8-Furan-3-ylmethyl-8-aza-bicyclo[3.2.1]oct-3-ylidene)-9H-xanthene-3-carboxylic acid diethylamide [Compound 10a]”, the Ki at mu opioid receptor (setting [3]) was 546 nM; at delta opioid receptor [1] (rat forebrain membranes, [3H]DPDPE or [3H]naltrindole, read-out: delta (Ki)), 12.3 nM. For the same compound, the “delta GTPgS Rel Eff” value on delta opioid receptor [2] (NG108-15 cell membranes) is recorded as 0.75. Moreover, the EC50 at delta opioid receptor [2] (setting [4]) stood at 21.1 nM.
On to `CCN(CC)C(=O)c1ccc2c(c1)Oc1c(O)cccc1C2C1CC2CCC(C1)N2` (centres unmarked) [Compound 8c, 9-(8-Aza-bicyclo[3.2.1]oct-3-yl)-5-hydroxy-9H-xanthene-3-carboxylic acid diethylamide], for which the Ki was determined as 75 nM on mu opioid receptor and 1.29 nM on delta opioid receptor [1]. Further, on delta opioid receptor [2], the EC50 came out at 5 nM. On delta opioid receptor [2] (NG108-15 cell membranes), the “delta GTPgS Rel Eff” value was found to be 0.85.
In the case of `CCN(CC)C(=O)c1ccc2c(c1)Oc1ccccc1C2C1CC2CCC(C1)N2Cc1ccccn1` (centres unmarked) [Compound 15a, 9-(8-Pyridin-2-ylmethyl-8-aza-bicyclo[3.2.1]oct-3-yl)-9H-xanthene-3-carboxylic acid diethylamide], the figures for the Ki at mu opioid receptor (setting [3]) and at delta opioid receptor [1] were 1410 nM and 11.1 nM, respectively. For the same compound, the EC50 at delta opioid receptor [2] (setting [4]) is 155 nM.
`c1ccc2c(c1)Oc1cc(-c3ccncc3)ccc1C2C1CC2CCC(C1)N2` (centres unmarked) [Compound 20b, 3-(3-Pyridin-4-yl-9H-xanthen-9-yl)-8-aza-bicyclo[3.2.1]octane]: the results for the Ki on mu opioid receptor and on delta opioid receptor [1] were 3490 nM and 194 nM, respectively.
In the case of `CCN(CC)C(=O)c1ccc2c(c1)Oc1ccccc1C2C1CC2CCC(C1)N2Cc1cccs1` (centres unmarked) [Compound 14a, 9-(8-Thiophen-2-ylmethyl-8-aza-bicyclo[3.2.1]oct-3-yl)-9H-xanthene-3-carboxylic acid diethylamide], the Ki at mu opioid receptor worked out at 1650 nM; at delta opioid receptor [1], 18.7 nM. Also, at delta opioid receptor [2], the EC50 amounted to 96.9 nM. The “delta GTPgS Rel Eff” value at delta opioid receptor [2] (NG108-15 cell membranes) was determined as 0.65.
As to `c1csc(CN2C3CCC2CC(C2c4ccccc4Oc4cc(-c5ccncc5)ccc42)C3)c1` (centres unmarked) [Compound 21b, 3-(3-Pyridin-4-yl-9H-xanthen-9-yl)-8-thiophen-2-ylmethyl-8-aza-bicyclo[3.2.1]octane], the results for the Ki at mu opioid receptor and at delta opioid receptor [1] were 930 nM and 98 nM, respectively.
On to `c1ccc(CN2C3CCC2CC(C2c4ccccc4Oc4cc(-c5cccnc5)ccc42)C3)cc1` (centres unmarked) [Compound 11b, 8-Benzyl-3-(3-pyridin-3-yl-9H-xanthen-9-yl)-8-aza-bicyclo[3.2.1]octane], for which the results for the Ki at mu opioid receptor and at delta opioid receptor [1] were 955 nM and 70.4 nM, respectively.
Turning to `O=C(c1ccc2c(c1)Oc1ccccc1C2C1CC2CCC(C1)N2)N1CCCC1` (centres unmarked) [Compound 3g, [9-(8-Aza-bicyclo[3.2.1]oct-3-yl)-9H-xanthen-3-yl]-pyrrolidin-1-yl-methanone], the figures for the Ki at mu opioid receptor and at delta opioid receptor [1] were 7600 nM and 831 nM, respectively.
Take `CCN(CC)C(=O)c1ccc2c(c1)Oc1c(O)cccc1C2C1CC2CCC(C1)N2Cc1ccoc1` (centres unmarked) [Compound 9c, 9-(8-Furan-3-ylmethyl-8-aza-bicyclo[3.2.1]oct-3-yl)-5-hydroxy-9H-xanthene-3-carboxylic acid diethylamide]: the values for the Ki on mu opioid receptor and at delta opioid receptor [1] were 73 nM and 0.73 nM, respectively. Also, the EC50 at delta opioid receptor [2] was 4.6 nM. For the same compound, on delta opioid receptor [2] (NG108-15 cell membranes), the “delta GTPgS Rel Eff” value was found to be 1.02.
In the case of `CC(=O)Nc1ccccc1-c1ccc2c(c1)Oc1ccccc1C2C1CC2CCC(C1)N2` (centres unmarked) [Compound 7b, N-{2-[9-(8-Aza-bicyclo[3.2.1]oct-3-yl)-9H-xanthen-3-yl]-phenyl}-acetamide], the Ki at mu opioid receptor is 6380 nM; at delta opioid receptor [1], 426 nM.
